In assay [1] the test system is Vα24i human NKT cell line. Description: In vitro cytokine secretion assay using human NKT cell lines with CD14+ dendritic cells. It counts as cell-based. The procedure: (§1) Human NKT cell lines, expressing the Vα24i T cell receptor as well as CD161, were generated as follows: Anti-CD161 monoclonal antibodies, and anti-CD14 monoclonal antibodies, each coupled to magnetic beads (Miltenyi biotec, Auburn, Calif.), were used sequentially to isolate CD161^+ cells and CD14^+ cells from leukopaks. Immature dendritic cells were generated from the CD14^+ cells after a two-day incubation in the presence of 300 U/ml GM-CSF (R&D systems, Minneapolis, Minn.) and 100 U/ml IL-4 (R&D systems, Minneapolis, Minn.). Following irradiation with 2000 rads, the immature dendritic cells were co-cultured with syngeneic CD161′ cells in the presence of 100 ng/ml of alpha-galactosylceramide and 10 IU/ml of IL-2 (Invitrogen, Carlsbad Calif.) for 10 to 14 days. After stimulating the CD161^+ cells a second time with alpha-galactosylceramide-pulsed, irradiated immature dendritic cells, NKT cell lines were shown by flow cytometry to express both CD161^+ and V 24i TCR (99% purity).
IFN-γ and IL-4 secretion by the Vα 24i human NKT cell line was determined by ELISA (BD Pharmingen, San Diego, Calif.) after culture for 16 hours. […]
as §1, with “of 100-0.1” for “of 100”
IFN-γ secretion by the Vα 24i human NKT cell line was determined by ELISA (BD Pharmingen, San Diego, Calif.) after culture for 16 hours. […]

Assay [2] relates to CD1d reactive T cell hybridomas with an invariant Vα14i T cell antigen receptor α chain. Description: 1.2 Hybridoma assay (IL-2 release by ELISA). It counts as cell-based, Mouse. As to conditions: for IL-2 secretion: CD1d coated plates, FIG. 8b; for IL-2 release / IL-2 production: various concentrations, FIG. 13. How it is done: As a measure of T cell activation, IL-2 release into the tissue culture medium was measured after 16 hours culture by an ELISA assay.
As a measure of T cell activation, IL-2 and IFN-γ release into the tissue culture medium was measured after 16 hours culture by an ELISA assay.
Background: ELISA stands for enzyme-linked immunosorbent assay.

`CCCCCCCCCCCCCCC[C@@H](O)[C@H](COC1OC(C(=O)O)C(O)C(O)C1O)NC(=O)CCCCCCCCCCCCC` (some centres unmarked) [Compound 5]: in assay [1], the “reactivity of human Vα24i NKT cells” value is reported as “conserved”.
Turning to `CCCCCCCCCCCCCCC[C@@H](O)[C@H](COC1OC(C(=O)O)C(O)C(O)C1O)NC(=O)[C@@H](O)CCCCCCCCCCCC` (some centres unmarked) [Compound 6], in assay [1], the “reactivity of human Vα24i NKT cells” value was “conserved”.
Turning to `CCCCCCCCCCCCCCC[C@@H](O)[C@H](COC1OC(CO)C(O)C(O)C1O)NC(=O)CCCCCCCCCCCCC` (some centres unmarked) [Compound 7], in assay [2], the IL-2 secretion entry is recorded as “greater IL-2 secretion when compared to the galacturonic acid derivatives”.
With `CCCCCCCCCCCCCCC[C@@H](O)[C@H](COC1OC(CO)C(O)C(O)C1O)NC(=O)[C@@H](O)CCCCCCCCCCCC` (some centres unmarked) [Compound 8], in assay [2], the IL-2 secretion result is “less able to activate IL-2 secretion when compared with 5”.
In the case of `CCCCCCCCCCCCCC[C@@H](O)[C@@H](O)[C@H](COC1OC(CO)C(O)C(O)C1O)NC(=O)CCCCCc1ccccc1` (some centres unmarked) [Compound 83], the “IL-2 release / IL-2 production” value in assay [2] (CD1d transfected A20 cells) is on record as “significant increase of IL-2 production”.
For `CCCCCCCCCCCCCC[C@@H](O)[C@@H](O)[C@H](COC1OC(CO)C(O)C(O)C1O)NC(=O)CCCCCCCc1ccccc1` (some centres unmarked) [Compound 84], in assay [1] (100-0.1 ng/mL, FIGS. 17 and 18), the interferon-γ secretion entry is reported as “consistently stimulating greater IFN-γ secretion”. For the same molecule, in assay [2] (CD1d transfected A20 cells), the “IL-2 release / IL-2 production” value is “significant increase of IL-2 production”.
`CCCCCCCCCCCCCCCCCCCCCCCCCC(=O)N[C@@H](CO[C@H]1O[C@H](CO)[C@H](O)[C@H](O)[C@H]1O)[C@H](O)[C@H](O)CCCCCCCCCCCCCC` [α-GalCer, α-Galactosylceramide, reference compound]: in assay [1] (10 μg/ml glycolipid (1-10 μg/ml for 3-O-sulfo-α-galactosylceramide), 10 IU/ml IL-2), the IL-4 secretion entry is “greater IFN-γ and IL-4 secretion”. The IFN-γ secretion entry in assay [1] (10 μg/ml glycolipid (1-10 μg/ml for 3-O-sulfo-α-galactosylceramide), 10 IU/ml IL-2, FIG. 9a) is “greater IFN-γ and IL-4 secretion”. Besides, in assay [2] (1 μg/ml, CD1d transfected A20 cells, FIG. 12), the “IL-2 release from the hybridomas” value is given as “greatest amount of IL-2 release”. The IL-2 secretion result in assay [2] was “greater IL-2 secretion when compared to the galacturonic acid derivatives”.

For the origin of these results see patent publication US8586051B2, “Glycolipids and analogues thereof as antigens for NKT cells” (The Rockefeller University, priority 2004, dated 2013).
